Measurements reported in patent publication US20250339409A1, “USES OF PAN BET INHIBITORS” (VYNE THERAPEUTICS INC., priority 2021, published 2025).
Values joined by “and” are separate entries in the source; they are usually repeats but may differ in a detail not shown here. Equal entries are not always repeated.

Tested on: anti collagen antibodies induced arthritis (ACAIA)
Assay: ACAIA mice: histopathology of hind paws (tarsus);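 note: Mid-sagittal H&E-stained sections of mouse tarsus taken at study end, lesion severity graded from 0 (normal) to 4 (severe)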
Format: in vivo, Balb/c mice
Design: key to Histology: Score / Histology: Score, MEAN: 0 = within normal limits, 1 minimal, 2 mild, 3 moderate, 4 severe
Conditions: for Histology: Score, MEAN: group mean; for Histology: Bones / Histology: Cartilage / Histology: Joint space / Histology: Score / Histology: Soft tissue: individual animals
[1] = 1 mg/kg IA (Group 7), L paw (injected)
[2] = 1 mg/kg IA (Group 7), R paw (contralateral)
[3] = 1 mg/kg IA (Group 3), L paw (injected)
[4] = 1 mg/kg IA (Group 3), R paw (contralateral)
[5] = 10 mg/kg IA (Group 2), Mean±SEM
[6] = 10 mg/kg IA (Group 2), L paw (injected)
[7] = 10 mg/kg IA (Group 2), R paw (contralateral)

## C[C@@H]1C[C@H]2[C@@H]3CCC4=CC(=O)C=C[C@]4(C)[C@@]3(F)[C@@H](O)C[C@]2(C)[C@@]1(O)C(=O)CO [dexamethasone, Dexamethasone, reference compound]
[1]
  Histology: Score, MEAN: 2.93
  Histology: Bones: 4 (2×) and 0 and 3 (3×) and 2.5
  Histology: Cartilage: 4 (2×) and 0 and 3 (2×) and 2.5 (2×)
  Histology: Joint space: 4 (6×) and 0
  Histology: Score: 4 (2×) and 1 and 3 (3×) and 2.5
  Histology: Soft tissue: 4 (2×) and 1.5 and 2 (2×) and 3 and 2.5
[2]
  Histology: Score, MEAN: 2.29
  Histology: Bones: 0 (3×) and 4 (4×)
  Histology: Cartilage: 0 (3×) and 4 (4×)
  Histology: Joint space: 0 (3×) and 4 (4×)
  Histology: Score: 0 (3×) and 4 (4×)
  Histology: Soft tissue: 0 (3×) and 4 (4×)

## Cn1cc(-c2cccc(O)c2Oc2ccccc2)c2cc[nH]c2c1=O [BETi1]
1 mg/kg IA (Group 3), Mean±SEM
  mean histopathological score, treated left hind paw: 2.14±0.55 a.u.
[3]
  Histology: Score, MEAN: 2.14
  Histology: Bones: 3.5 and 2 and 0 (3×) and 3 and 4
  Histology: Cartilage: 3.5 and 2 and 0 (3×) and 3 and 4
  Histology: Joint space: 4 (4×) and 0 (3×)
  Histology: Score: 3.5 (3×) and 2.5 and 1 (2×) and 0
  Histology: Soft tissue: 3 (2×) and 2.5 (2×) and 1 (2×) and 0
[4]
  Histology: Score, MEAN: 3.57
  Histology: Bones: 4 (5×) and 0 and 3.5
  Histology: Cartilage: 4 (6×) and 0
  Histology: Joint space: 4 (6×) and 0
  Histology: Score: 4 (6×) and 1
  Histology: Soft tissue: 4 (3×) and 1 and 3.5 (2×) and 3
1 mg/kg IA (Group 3L), 3/7 cases
  histopathology findings, treated paws: moderate to severe lesions with destruction of cartilage and bone
[5]
  mean histopathological score, contralateral right hind paw: 4.00±0.00 a.u.
  mean histopathological score, treated left hind paw: 0.33±0.21 a.u.
10 mg/kg IA (Group 2), L paw (injected), **p < 0.01 vs Vehicle Group, ##p < 0.01 vs contralateral (Right) paw
  Histology: Score, MEAN: 0.33**##
[6]
  Histology: Bones: 0
  Histology: Cartilage: 0
  Histology: Joint space: 0
  Histology: Score: 0 (4×) and 1 (2×)
  Histology: Soft tissue: 0 (4×) and 1 (2×)
[7]
  Histology: Score, MEAN: 4.00
  Histology: Bones: 4
  Histology: Cartilage: 4
  Histology: Joint space: 4
  Histology: Score: 4
  Histology: Soft tissue: 4 (4×) and 3.5 (2×)
10 mg/kg IA (group 2L)
  histopathology findings, treated paws: 4/6 were WNL
